# Reference: patent US5622942A, “Percutaneous absorptive anesthetic” (priority 1993, dated 1997)
# Columns and labels:
# [1] = Acute toxic examination (LD50), oral, rat; settings: in vivo
# Method: The results of acute toxic examination (LD50) which was carried out with the rat through the oral dose of the compound were follows.
# [2] = Lidocaine blood concentration after application of ointment to the rat abdomen (fluorescence polarization immunoassay); format: in vivo, Wistar rat
# Description: (1) Experimental Animal Wistar rat a. Aqueous gel ointment containing 2% of lidocaine. b. Aqueous gel ointment containing 10% of lidocaine. c. Aqueous gel ointment in (b) containing 3% of compound 4. e. Aqueous gel ointment in (a) containing 3% of compound 4. […] Group with an ointment a applied. Group with an ointment e applied. […] Group with an ointment c applied. Group with 3% Azone (Trademark registered)--10% lidocaine aqueous gel-ointment applied. […] In these groups, the rats had their body portion covered with a polyethylene food wrapping sheet at an area where an ointment was applied, and sealed by means of transparent tape. Then, a blood was withdrawn through a cannula which had been inserted into the carotid. The blood was pretreated with a heparin and separated by means of centrifugal separator to obtain blood plasma. A fluorescence polarization immunoassay was used to determine the concentration of the lidocaine in the blood.
# skin [3] = assay: Double-blind pinprick procedure pain score at the vein puncture area in patients; format: in vivo, patient (human); settings: ointment c versus ointment b, p<0.05
# Method: A patient who was to receive an operation.
# The sponge was applied over an area in which the vein is punctured in accordance with a double-blind assay method. The area was sealed off with a transparent tape, and the topical reaction and the painless effect occurring on the skin were compared about 1 hour later.
# The following pain score was employed as a criterion.
# When the pain score was zero, the needle was pierced into the skin about 1.0 mm deep to verify the pain.
# skin [4] = assay: Preparatory pinprick test of skin anesthesia effect, 3% absorption promoter and 2% lidocaine aqueous gel-ointment; format: in vivo, healthy adult (human); settings: for time at which effect of the skin anesthesia began / time of complete skin anesthesia: after application, 3% promoter + 2% lidocaine; for skin anesthesia effect, in words: pinprick, up to 4 hours after application
# Method: Same as that in the experimental example 1.
# A preparatory experiment was carried out to verify the skin anesthesia effect of various lidocaine aqueous gel-ointments when they are applied in the quantity of 0.3 g/4 cm^2.
# Pinprick test was carried out to compare results utilizing lidocaine aqueous gel-ointment which was prepared by mixing the ointments d-h, Xylocaine Jelly (Trademark registered, containing 2% lidocaine, made by Fujisawa Pharmaceutical Co., Ltd.), Azone, a known percutaneous absorption promoter, sodium caprate (to be indicated as Cap Na hereinafter) and isopropyl myristate (to be indicated as IPM hereinafter).
# The skin over which various ointments were applied was pierced several times using a 26 gauge intradermal needle at the time of 1, 1.5, 2, 3 and 4 hours after the application, and the degree of pain felt by the adult was evaluated according to a criterion given below.
# ++ No pain felt at the area where the ointment was applied.
# + Pain felt at some portions.
# - Pain felt at that area.
SMILES,LD50 [1],"lidocaine blood concentration ([2]; 2% lidocaine ointments (groups 1 and 2), with or without 3% compound 4)","absorption promoting effect (lidocaine blood concentration) ([2]; 10% lidocaine aqueous gel ointment (groups 3-5), 3% promoter, up to five hours)","effect in removing the pain of the skin, in words (skin [3])",time at which effect of the skin anesthesia began (skin [4]),time of complete skin anesthesia (skin [4]),"absorption promoting effect (lidocaine blood concentration) ([2]; rat, in vivo)","skin anesthesia effect, in words (skin [4])"
"CC1(C)[C@@H](OC(=O)c2ccccc2C(=O)O)CC[C@]2(C)[C@H]3C(=O)C=C4[C@@H]5C[C@@](C)(C(=O)O)CC[C@]5(C)CC[C@@]4(C)[C@]3(C)CC[C@@H]12 [Compound 4, Glycyrrhetic acid 3β-monohemiphthalate]",1320 mg/kg,any significant result was not observed,an absorption promoting effect of the compound 4 was acknowledged,effective in removing the pain of the skin,1.5 h,2 h,–,–
"CCCCCCCCCCCCN1CCCCCC1=O [Azone, reference compound]",–,–,–,–,–,–,no major effect of improving absorption was found,–
"CC1(C)[C@@H](OC(=O)c2ccccc2C(=O)O)CC[C@]2(C)[C@H]3CC=C4[C@@H]5C[C@@](C)(COC(=O)c6ccccc6C(=O)O)CC[C@]5(C)CC[C@@]4(C)[C@]3(C)CC[C@@H]12 [Compound 5, 18β-olean-12-ene-3 β, 30-diol-3 β, 30-dihemiphthalate]",1260 to 1520 mg/kg,–,–,–,–,–,–,skin anesthesia effect substantially equal to that by Azone
"CC1(C)[C@@H](OC(=O)c2ccccc2C(=O)O)CC[C@]2(C)C3=CC=C4[C@@H]5C[C@@](C)(COC(=O)c6ccccc6C(=O)O)CC[C@]5(C)CC[C@@]4(C)[C@]3(C)CC[C@@H]12 [Compound 6, 18β-olean-9(11), 12-diene-3 β, 30-diol-3 β, 30-dihemiphthalate]",1280 to 1500 mg/kg,–,–,–,–,–,–,skin anesthesia effect substantially equal to that by Azone
"CC1(C)[C@@H](OC(=O)c2ccccc2C(=O)O)CC[C@]2(C)[C@H]3C=CC4=C5C[C@@](C)(COC(=O)c6ccccc6C(=O)O)CC[C@]5(C)CC[C@@]4(C)[C@]3(C)CC[C@@H]12 [Compound 7, Olean-11,13(18)-diene-3 β, 30-diol-3 β, 30-dihemiphthalate]",628 to 793 mg/kg,–,–,–,1.5 h,2 h,–,–
"CC1(C)[C@@H](OC(=O)CCC(=O)O)CC[C@]2(C)[C@H]3C(=O)C=C4[C@@H]5C[C@@](C)(C(=O)O)CC[C@]5(C)CC[C@@]4(C)[C@]3(C)CC[C@@H]12 [Compound 3, Glycyrrhetic acid 3β-monohemisuccinate]",520 mg/kg,–,–,–,1.5 h,2 h,–,–
